{"source": "paper PMC12951562", "about": "“SH2scan: Mapping SH2 Domain-Ligand Binding Selectivity for Inhibitors and Degraders” (Journal of Medicinal Chemistry, 2026)", "test_in_all_cases": "biochemical", "assay_type_in_all_cases": "binding", "key": {"ABL2": {"target": "T1, ABL2 (Homo sapiens, UniProt P42684)", "T1 construct": "the DNA-tagged SH2 domain concentrations used in this study were <0.1 nM; made in house; host or cells: HEK293 (transient transfection; unpurified extract)", "T1 sequence (P42684 173-263 limits assumed)": "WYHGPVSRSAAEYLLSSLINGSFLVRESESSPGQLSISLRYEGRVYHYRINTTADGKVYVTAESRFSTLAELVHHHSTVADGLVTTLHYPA", "conditions": "for percent of DMSO vehicle control at 10 µM: read-out: percent of DMSO vehicle control"}, "APS (SH2B2)": {"target": "T2, APS (SH2B2) (Homo sapiens, UniProt O14492)", "T2 construct": "the DNA-tagged SH2 domain concentrations used in this study were <0.1 nM; made in house; host or cells: HEK293 (transient transfection; unpurified extract)", "T2 sequence (O14492 417-515 limits assumed)": "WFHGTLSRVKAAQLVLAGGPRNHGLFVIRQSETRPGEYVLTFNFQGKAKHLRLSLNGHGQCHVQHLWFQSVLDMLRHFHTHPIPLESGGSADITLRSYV", "conditions": "read-out: percent of DMSO vehicle control"}, "CBLC": {"target": "T3, CBLC (Homo sapiens, UniProt Q9ULV8)", "T3 construct": "the DNA-tagged SH2 domain concentrations used in this study were <0.1 nM; made in house; host or cells: HEK293 (transient transfection; unpurified extract)", "T3 sequence (Q9ULV8 219-321 limits assumed)": "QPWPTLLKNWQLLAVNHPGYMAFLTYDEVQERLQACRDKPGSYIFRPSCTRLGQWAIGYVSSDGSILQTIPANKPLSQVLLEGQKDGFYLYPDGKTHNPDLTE", "conditions": "read-out: percent of DMSO vehicle control"}, "CRKL": {"target": "T4, CRKL (Homo sapiens, UniProt P46109)", "T4 construct": "the DNA-tagged SH2 domain concentrations used in this study were <0.1 nM; made in house; host or cells: HEK293 (transient transfection; unpurified extract)", "T4 sequence (P46109 14-102 limits assumed)": "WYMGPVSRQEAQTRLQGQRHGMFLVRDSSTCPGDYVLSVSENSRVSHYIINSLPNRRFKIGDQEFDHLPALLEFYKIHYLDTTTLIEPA", "conditions": "read-out: percent of DMSO vehicle control"}, "FES": {"target": "T5, FES (Homo sapiens, UniProt P07332)", "T5 construct": "the DNA-tagged SH2 domain concentrations used in this study were <0.1 nM; made in house; host or cells: HEK293 (transient transfection; unpurified extract)", "T5 sequence (P07332 460-549 limits assumed)": "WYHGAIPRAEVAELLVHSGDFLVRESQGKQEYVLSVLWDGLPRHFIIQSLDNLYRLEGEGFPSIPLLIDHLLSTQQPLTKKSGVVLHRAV", "conditions": "read-out: percent of DMSO vehicle control"}, "HSH2D": {"target": "T6, HSH2D (Homo sapiens, UniProt Q96JZ2)", "T6 construct": "the DNA-tagged SH2 domain concentrations used in this study were <0.1 nM; made in house; host or cells: HEK293 (transient transfection, unpurified extract)", "T6 sequence (Q96JZ2 34-125 limits assumed)": "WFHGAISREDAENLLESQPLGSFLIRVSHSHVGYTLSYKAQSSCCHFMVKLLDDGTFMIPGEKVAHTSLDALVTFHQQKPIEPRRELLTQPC", "conditions": "for percent of DMSO vehicle control at 10 µM: read-out: percent of DMSO vehicle control"}, "MIST": {"target": "T7, MIST (Homo sapiens, UniProt Q7Z7G1)", "T7 construct": "the DNA-tagged SH2 domain concentrations used in this study were <0.1 nM; made in house; host or cells: HEK293 (transient transfection, unpurified extract)", "T7 sequence (Q7Z7G1 309-419 limits assumed)": "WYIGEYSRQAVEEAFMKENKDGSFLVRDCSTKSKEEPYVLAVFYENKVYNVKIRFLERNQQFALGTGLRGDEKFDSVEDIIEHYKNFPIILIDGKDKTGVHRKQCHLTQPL", "conditions": "read-out: percent of DMSO vehicle control"}, "NCK1": {"target": "T8, NCK1 (Homo sapiens, UniProt P16333)", "T8 construct": "the DNA-tagged SH2 domain concentrations used in this study were <0.1 nM; made in house; host or cells: HEK293 (transient transfection, unpurified extract)", "conditions": "read-out: percent of DMSO vehicle control"}, "PIK3R2(SH2dom.N-term.)": {"target": "T9, PIK3R2(SH2dom.N-term.) (Homo sapiens, UniProt O00459)", "T9 construct": "SH2dom.N-term. denotes SH2 domain closest to N-terminus of protein; made in house; host or cells: HEK293 (transient transfection, unpurified extract)", "T9 sequence (O00459 330-425 limits assumed)": "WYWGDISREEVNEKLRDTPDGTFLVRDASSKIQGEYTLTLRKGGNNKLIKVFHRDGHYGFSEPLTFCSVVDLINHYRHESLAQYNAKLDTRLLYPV", "conditions": "read-out: percent of DMSO vehicle control"}, "PTPN6(SH2dom.C-term.)": {"target": "T10, PTPN6(SH2dom.C-term.) (Homo sapiens, UniProt P29350)", "T10 construct": "SH2dom.C-term. denotes SH2 domain closest to C-terminus of protein; made in house; host or cells: HEK293 (transient transfection, unpurified extract)", "T10 sequence (P29350 110-213 limits assumed)": "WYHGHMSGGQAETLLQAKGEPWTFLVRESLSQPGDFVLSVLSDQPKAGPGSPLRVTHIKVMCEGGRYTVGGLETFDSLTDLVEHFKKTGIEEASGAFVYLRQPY", "conditions": "read-out: percent of DMSO vehicle control"}, "SOCS2": {"target": "T11, SOCS2 (Homo sapiens, UniProt O14508)", "T11 construct": "made in house; host or cells: HEK293 (transient transfection), unpurified extract", "T11 sequence (O14508 1-198)": "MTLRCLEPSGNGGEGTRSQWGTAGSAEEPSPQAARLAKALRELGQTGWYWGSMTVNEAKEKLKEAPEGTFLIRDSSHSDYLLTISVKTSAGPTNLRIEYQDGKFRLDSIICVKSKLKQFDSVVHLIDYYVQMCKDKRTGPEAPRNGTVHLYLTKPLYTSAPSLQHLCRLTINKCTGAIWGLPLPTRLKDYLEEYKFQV", "conditions": "read-out: percent of DMSO vehicle control"}, "SOCS6": {"target": "T12, SOCS6 (Homo sapiens, UniProt O14544)", "T12 construct": "made in house; host or cells: HEK293 (transient transfection), unpurified extract", "T12 sequence (O14544 1-535)": "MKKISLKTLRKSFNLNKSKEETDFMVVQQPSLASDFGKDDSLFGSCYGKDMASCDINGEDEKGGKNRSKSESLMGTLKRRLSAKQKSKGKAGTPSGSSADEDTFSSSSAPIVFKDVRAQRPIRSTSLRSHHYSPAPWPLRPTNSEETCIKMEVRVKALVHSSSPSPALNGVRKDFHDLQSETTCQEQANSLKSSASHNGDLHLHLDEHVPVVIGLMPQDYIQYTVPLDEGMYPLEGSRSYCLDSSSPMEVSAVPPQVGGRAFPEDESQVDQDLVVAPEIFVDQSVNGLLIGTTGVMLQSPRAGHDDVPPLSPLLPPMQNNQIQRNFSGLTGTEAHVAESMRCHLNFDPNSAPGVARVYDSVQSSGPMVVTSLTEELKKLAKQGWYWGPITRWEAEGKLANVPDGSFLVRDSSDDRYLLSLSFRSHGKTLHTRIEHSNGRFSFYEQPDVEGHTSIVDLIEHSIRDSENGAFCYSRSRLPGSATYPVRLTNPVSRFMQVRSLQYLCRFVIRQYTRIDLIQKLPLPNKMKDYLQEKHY", "conditions": "read-out: percent of DMSO vehicle control"}, "STAT4": {"target": "T13, STAT4 (Homo sapiens, UniProt Q14765)", "T13 construct": "made in house; host or cells: HEK293 (transient transfection), unpurified extract", "T13 sequence (Q14765 1-748)": "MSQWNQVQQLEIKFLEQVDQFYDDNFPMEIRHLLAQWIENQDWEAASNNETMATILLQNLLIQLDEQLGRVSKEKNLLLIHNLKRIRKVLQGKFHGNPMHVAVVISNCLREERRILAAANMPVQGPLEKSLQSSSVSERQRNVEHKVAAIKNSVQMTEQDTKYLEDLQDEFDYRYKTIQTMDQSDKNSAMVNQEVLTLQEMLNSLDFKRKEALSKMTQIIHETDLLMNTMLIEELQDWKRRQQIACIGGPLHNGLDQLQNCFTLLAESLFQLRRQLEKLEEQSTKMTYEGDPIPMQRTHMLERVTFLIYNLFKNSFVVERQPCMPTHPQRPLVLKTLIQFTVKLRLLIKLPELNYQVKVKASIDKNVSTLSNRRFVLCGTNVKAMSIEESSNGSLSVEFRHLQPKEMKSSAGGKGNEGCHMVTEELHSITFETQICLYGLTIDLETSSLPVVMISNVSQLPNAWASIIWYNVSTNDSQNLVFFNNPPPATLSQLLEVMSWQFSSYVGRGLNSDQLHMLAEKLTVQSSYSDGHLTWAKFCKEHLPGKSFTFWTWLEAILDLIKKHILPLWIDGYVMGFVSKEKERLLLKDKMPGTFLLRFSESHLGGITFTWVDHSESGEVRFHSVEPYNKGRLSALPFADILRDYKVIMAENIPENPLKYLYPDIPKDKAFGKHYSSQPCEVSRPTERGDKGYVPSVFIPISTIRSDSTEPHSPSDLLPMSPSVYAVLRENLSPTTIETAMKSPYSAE", "conditions": "for percent of DMSO vehicle control: primary screen, 10 μM"}}}
{"smiles": "CC(=O)N[C@@H](Cc1ccc(CP(=O)(O)O)cc1)C(=O)NC1(C(=O)N[C@@H](CC(N)=O)C(=O)NCCCc2c(O)ccc3ccccc23)CCCCC1", "note": "[CGP78850]", "values": [{"measurement": "Kd", "setting": "ABL2", "value": "1100 ± 120", "unit": "nM"}, {"measurement": "percent of DMSO vehicle control at 10 µM", "setting": "ABL2", "value": "6.2 ± 0.1", "unit": "%"}, {"measurement": "percent of DMSO vehicle control at 10 µM", "setting": "APS (SH2B2)", "value": "128 ± 7.6", "unit": "%"}, {"measurement": "percent of DMSO vehicle control at 10 µM", "setting": "CBLC", "value": "128 ± 29.6", "unit": "%"}, {"measurement": "percent of DMSO vehicle control at 10 µM", "setting": "CRKL", "value": "36.4 ± 18.5", "unit": "%"}, {"measurement": "remaining activity at 10 µM", "setting": "FES", "value": "52 ± 0.5", "unit": "%"}, {"measurement": "Kd", "setting": "HSH2D", "value": "1600 ± 350", "unit": "nM"}, {"measurement": "percent of DMSO vehicle control at 10 µM", "setting": "HSH2D", "value": "8.1 ± 6.6", "unit": "%"}, {"measurement": "percent of DMSO vehicle control at 10 µM", "setting": "MIST", "value": "102 ± 2.3", "unit": "%"}, {"measurement": "remaining activity at 10 µM", "setting": "NCK1", "value": "104 ± 4.8", "unit": "%"}, {"measurement": "remaining activity at 10 µM", "setting": "PIK3R2(SH2dom.N-term.)", "value": "141 ± 24.2", "unit": "%"}, {"measurement": "remaining activity at 10 µM", "setting": "PTPN6(SH2dom.C-term.)", "value": "130.9 ± 0.8", "unit": "%"}, {"measurement": "remaining activity at 10 µM", "setting": "SOCS2", "value": "119 ± 4.7", "unit": "%"}, {"measurement": "remaining activity at 10 µM", "setting": "SOCS6", "value": "63.3 ± 5.3", "unit": "%"}, {"measurement": "percent of DMSO vehicle control", "setting": "STAT4", "value": "91.4±14.0", "unit": "%"}]}
{"smiles": "CC(=O)N1CC[C@H]2CC[C@@H](C(=O)N[C@@H](CCC(N)=O)C(=O)NC(c3ccccc3)c3ccccc3)N2C(=O)[C@@H](NC(=O)c2cc3cc(C(F)(F)P(=O)(O)O)ccc3[nH]2)C1", "note": "[SI-109]", "values": [{"measurement": "percent of DMSO vehicle control at 10 µM", "setting": "ABL2", "value": 122, "unit": "%"}, {"measurement": "percent of DMSO vehicle control at 10 µM", "setting": "APS (SH2B2)", "value": 130, "unit": "%"}, {"measurement": "percent of DMSO vehicle control at 10 µM", "setting": "CBLC", "value": 106, "unit": "%"}, {"measurement": "percent of DMSO vehicle control at 10 µM", "setting": "CRKL", "value": 125, "unit": "%"}, {"measurement": "remaining activity at 10 µM", "setting": "FES", "value": 160, "unit": "%"}, {"measurement": "percent of DMSO vehicle control at 10 µM", "setting": "HSH2D", "value": 154, "unit": "%"}, {"measurement": "percent of DMSO vehicle control at 10 µM", "setting": "MIST", "value": 104, "unit": "%"}, {"measurement": "remaining activity at 10 µM", "setting": "NCK1", "value": 124, "unit": "%"}, {"measurement": "remaining activity at 10 µM", "setting": "PIK3R2(SH2dom.N-term.)", "value": 130, "unit": "%"}, {"measurement": "remaining activity at 10 µM", "setting": "PTPN6(SH2dom.C-term.)", "value": 119, "unit": "%"}, {"measurement": "remaining activity at 10 µM", "setting": "SOCS2", "value": 142, "unit": "%"}, {"measurement": "remaining activity at 10 µM", "setting": "SOCS6", "value": "91.9 ± 7.4", "unit": "%"}, {"measurement": "Kd", "setting": "STAT4", "value": "240 ± 106", "unit": "nM"}, {"measurement": "percent of DMSO vehicle control", "setting": "STAT4", "value": "7.3±0.1", "unit": "%"}]}
